For 21 compounds, IC50 and Selectivity results are on record in ChEMBL document CHEMBL1138698, “Ketoamide-based inhibitors of cysteine protease, cathepsin K: P3 modifications” (J Med Chem, 2004).

The target of one assay is T1, Cathepsin K (Homo sapiens, UniProt P43235).
T1 sequence (P43235 whole entry): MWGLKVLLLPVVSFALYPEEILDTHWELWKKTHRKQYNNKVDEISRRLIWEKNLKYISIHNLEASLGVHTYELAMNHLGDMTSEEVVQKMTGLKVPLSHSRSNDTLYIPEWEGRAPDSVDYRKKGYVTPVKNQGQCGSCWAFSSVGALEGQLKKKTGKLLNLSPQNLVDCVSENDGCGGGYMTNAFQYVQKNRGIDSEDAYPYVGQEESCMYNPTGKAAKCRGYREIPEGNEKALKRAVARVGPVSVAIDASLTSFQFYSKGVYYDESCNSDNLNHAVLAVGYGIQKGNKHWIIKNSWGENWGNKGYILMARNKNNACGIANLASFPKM
Put plainly: Inhibitory potency against human Cathepsin K.

The target of assay [1] is Cathepsin (B and K) (Homo sapiens) (UniProt P43235+P07858). The assay is described as follows: Selectivity for human Cathepsins B and K. In kind it is protein assay.
In assay [2] the target is Cathepsin (H and K) (Homo sapiens) (UniProt P09668+P43235). Put plainly: Selectivity for human Cathepsins H and K. Format: protein assay.
Chain of Cathepsin (H and K) (Homo sapiens) (P09668 whole entry, looked up, one chain of several): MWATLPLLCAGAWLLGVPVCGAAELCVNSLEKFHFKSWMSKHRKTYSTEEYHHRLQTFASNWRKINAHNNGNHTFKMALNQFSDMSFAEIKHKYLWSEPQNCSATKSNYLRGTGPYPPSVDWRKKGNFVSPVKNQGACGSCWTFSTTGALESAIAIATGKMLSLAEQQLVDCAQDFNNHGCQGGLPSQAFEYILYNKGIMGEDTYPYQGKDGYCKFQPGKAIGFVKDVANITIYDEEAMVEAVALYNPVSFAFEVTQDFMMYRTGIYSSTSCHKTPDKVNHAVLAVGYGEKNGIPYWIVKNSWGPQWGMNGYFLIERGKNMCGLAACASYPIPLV
Assay [3] has as its target Cathepsin (L and K) (Homo sapiens) (UniProt P43235+P07711). Put plainly: Selectivity for human Cathepsins L and K. Format: protein assay.
In assay [4] the target is Cathepsin (V and K) (Homo sapiens) (UniProt P43235+O60911). Put plainly: Selectivity for human Cathepsins V and K. In kind it is protein assay.
Chain of Cathepsin (V and K) (Homo sapiens) (O60911 whole entry, looked up, one chain of several): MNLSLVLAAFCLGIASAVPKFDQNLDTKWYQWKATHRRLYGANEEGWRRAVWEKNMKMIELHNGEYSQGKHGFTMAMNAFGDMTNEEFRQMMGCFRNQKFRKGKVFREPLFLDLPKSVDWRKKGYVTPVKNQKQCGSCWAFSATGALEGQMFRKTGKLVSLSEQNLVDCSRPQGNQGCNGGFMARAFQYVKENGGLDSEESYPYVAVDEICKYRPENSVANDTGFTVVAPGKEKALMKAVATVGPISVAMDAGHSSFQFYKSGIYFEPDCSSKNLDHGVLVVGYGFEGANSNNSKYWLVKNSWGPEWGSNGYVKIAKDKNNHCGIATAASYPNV
The target of assay [5] is Cathepsin (S and K) (Homo sapiens) (UniProt P25774+P43235). The assay is described as follows: Selectivity for human Cathepsins S and K. Format: protein assay.
Chain of Cathepsin (S and K) (Homo sapiens) (P25774 whole entry, looked up, one chain of several): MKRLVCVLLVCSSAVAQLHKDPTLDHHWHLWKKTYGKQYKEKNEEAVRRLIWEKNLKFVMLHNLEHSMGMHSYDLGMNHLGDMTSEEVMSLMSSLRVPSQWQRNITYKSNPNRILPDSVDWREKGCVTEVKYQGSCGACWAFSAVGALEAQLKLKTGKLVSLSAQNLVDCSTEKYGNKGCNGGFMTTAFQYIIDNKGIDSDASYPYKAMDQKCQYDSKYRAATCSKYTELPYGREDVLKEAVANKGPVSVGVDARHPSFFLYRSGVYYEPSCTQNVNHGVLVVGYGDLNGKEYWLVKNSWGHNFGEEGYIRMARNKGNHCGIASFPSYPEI

Chain of Cathepsin (L and K) (Homo sapiens) (P07711 whole entry, looked up, one chain of several): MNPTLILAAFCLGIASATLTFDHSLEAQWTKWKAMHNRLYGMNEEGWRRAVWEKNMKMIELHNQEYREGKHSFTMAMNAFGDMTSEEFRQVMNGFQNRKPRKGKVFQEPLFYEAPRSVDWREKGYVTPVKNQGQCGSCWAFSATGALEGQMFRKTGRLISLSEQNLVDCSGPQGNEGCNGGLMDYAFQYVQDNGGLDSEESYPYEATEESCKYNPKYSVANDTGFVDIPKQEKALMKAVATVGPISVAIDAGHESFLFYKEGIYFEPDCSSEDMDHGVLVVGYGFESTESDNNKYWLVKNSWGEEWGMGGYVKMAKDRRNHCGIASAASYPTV

Compound `CCCC[C@H](NC(=O)OCC1(CCCOc2ccnc(Cl)n2)CCC1)C(=O)C(=O)N[C@H](C)c1ccccc1` gave an IC50 on Cathepsin K of over 12000 nM. Same read-out and setting: next, `CCCC[C@H](NC(=O)OCC1(COc2nc(-c3ccccc3)ns2)CCC1)C(=O)C(=O)N[C@H](C)c1ccccc1`: 50 nM.

Regarding `CCCC[C@H](NC(=O)OCC1(Cc2nc(-c3ccccc3)cs2)CCC1)C(=O)C(=O)N[C@H](C)c1ccccc1`, half-maximal inhibition at Cathepsin K (IC50) was put at 5.5 nM. The Selectivity is 660 in assay [1]; over 230 in assay [2]; 220 in assay [3]; 20 in assay [4]; 22 in assay [5]. For `CCCC[C@H](NC(=O)OCC1(CSc2nccs2)CCC1)C(=O)C(=O)N[C@H](C)c1ccccc1`, the IC50 against Cathepsin K is 17 nM. For the same compound, the Selectivity in assay [1] is 390; in assay [2], over 720; in assay [3], 250; in assay [4], 41; in assay [5], 4. `CCCC[C@H](NC(=O)OCC1(CSc2nccn2C)CCC1)C(=O)C(=O)N[C@H](C)c1ccccc1` returned an IC50 at Cathepsin K of 61 nM. The compound `CCCC[C@H](NC(=O)OCC1(COc2ncnc3ccsc23)CCC1)C(=O)C(=O)N[C@H](C)c1ccccc1` came in with an IC50 on Cathepsin K of 98 nM. In turn, `CCCC[C@H](NC(=O)OCC1(COc2ccnc(Cl)n2)CCC1)C(=O)C(=O)N[C@H](C)c1ccccc1` returned an IC50 against Cathepsin K of 85 nM. Still for that read-out and setting: as for `CCCC[C@H](NC(=O)OCC1(CSc2nc3ccccc3o2)CCC1)C(=O)C(=O)N[C@H](C)c1ccccc1`, the figure is 51 nM; as for `CCCC[C@H](NC(=O)OCC1(CSc2ncc(-c3ccc(Cl)cc3)n2C)CCC1)C(=O)C(=O)N[C@H](C)c1ccccc1`, 230 nM; as for `CCCC[C@H](NC(=O)OCC1(COc2nnc(C)cc2-c2ccccc2)CCC1)C(=O)C(=O)N[C@H](C)c1ccccc1`, 57 nM. On the same count and under the same terms, as for `CCCC[C@H](NC(=O)OCC1(CSc2nccc(-c3ccc(Cl)cc3)n2)CCC1)C(=O)C(=O)N[C@H](C)c1ccccc1`, the figure is 9.5 nM.

Regarding `CCCC[C@H](NC(=O)OCC1(COc2ccnc(N3CCN(c4ccccc4)CC3)n2)CCC1)C(=O)C(=O)N[C@H](C)c1ccccc1`, the midpoint of inhibition against Cathepsin K, the IC50, lay at 31 nM. Still for that read-out and setting: as for `CCCC[C@H](NC(=O)OCC1(COc2nccs2)CCC1)C(=O)C(=O)N[C@H](C)c1ccccc1`, the figure is 37 nM; as for `CCCC[C@H](NC(=O)OCC1(CSc2ncccn2)CCC1)C(=O)C(=O)N[C@H](C)c1ccccc1`, 11 nM. Still for that read-out and setting: as for `CCCC[C@H](NC(=O)OCC1(CSc2nccn2-c2ccccc2)CCC1)C(=O)C(=O)N[C@H](C)c1ccccc1`, the figure is 87 nM; as for `CCCC[C@H](NC(=O)OCC1(COc2ccnc(N3CCN(C)CC3)n2)CCC1)C(=O)C(=O)N[C@H](C)c1ccccc1`, 54 nM; as for `CCCC[C@H](NC(=O)OCC1(COc2ccnc(N3CCOCC3)n2)CCC1)C(=O)C(=O)N[C@H](C)c1ccccc1`, 54 nM.

Take `CCCC[C@H](NC(=O)OCC1(CCSc2nccn2C)CCC1)C(=O)C(=O)N[C@H](C)c1ccccc1`: the IC50 at Cathepsin K was over 12000 nM. As to `CCCC[C@H](NC(=O)OCC1(CCCSc2nccn2C)CCC1)C(=O)C(=O)N[C@H](C)c1ccccc1`, 1900 nM corresponded to half-maximal inhibition at Cathepsin K (IC50).

`CCCC[C@H](NC(=O)OCC1(COc2ncccn2)CCC1)C(=O)C(=O)N[C@H](C)c1ccccc1` registered an IC50 at Cathepsin K of 260 nM.

Regarding `CCCC[C@H](NC(=O)OCC1(COc2nc(-c3ccc(C)cc3)cs2)CCC1)C(=O)C(=O)N[C@H](C)c1ccccc1`, the half-maximal inhibitory concentration (IC50) on Cathepsin K stood at 150 nM.

One may read the IC50 as the concentration needed to halve the response being measured.
